Values quoted from earlier work, collected in patent US7060295B2, “Formulations for the prevention and treatment of insulin resistance and type 2 diabetes mellitus” (ChronoRX LLC, priority 2000, dated 2006).
Each block holds one compound with its values, some of them ahead of it.

Experiments:
[1] = in vivo
[2] = supplementation
sulfonylurea receptor = sulfonylurea receptor (Homo sapiens, UniProt Q09428); conditions: β-cell membrane receptors
[3] = in vivo; remark: listed apart in the source
[4] = 1 year, 457 non-diabetic patients with android (abdominal) obesity
[5] = in vivo; remark: listed apart in the source
[6] = tested on: insulin secreting β-cells
[7] = not given; remark: listed apart in the source
[8] = oral 60 mg twice daily for 8 weeks
pancreatic islets = conditions: islets simultaneously exposed to IL-1 beta
[9] = not given; remark: listed apart in the source
[10] = 600 mg/day, used alone, obese type 2 diabetes patients

sulfonylurea receptor, sequence (Q09428 whole entry): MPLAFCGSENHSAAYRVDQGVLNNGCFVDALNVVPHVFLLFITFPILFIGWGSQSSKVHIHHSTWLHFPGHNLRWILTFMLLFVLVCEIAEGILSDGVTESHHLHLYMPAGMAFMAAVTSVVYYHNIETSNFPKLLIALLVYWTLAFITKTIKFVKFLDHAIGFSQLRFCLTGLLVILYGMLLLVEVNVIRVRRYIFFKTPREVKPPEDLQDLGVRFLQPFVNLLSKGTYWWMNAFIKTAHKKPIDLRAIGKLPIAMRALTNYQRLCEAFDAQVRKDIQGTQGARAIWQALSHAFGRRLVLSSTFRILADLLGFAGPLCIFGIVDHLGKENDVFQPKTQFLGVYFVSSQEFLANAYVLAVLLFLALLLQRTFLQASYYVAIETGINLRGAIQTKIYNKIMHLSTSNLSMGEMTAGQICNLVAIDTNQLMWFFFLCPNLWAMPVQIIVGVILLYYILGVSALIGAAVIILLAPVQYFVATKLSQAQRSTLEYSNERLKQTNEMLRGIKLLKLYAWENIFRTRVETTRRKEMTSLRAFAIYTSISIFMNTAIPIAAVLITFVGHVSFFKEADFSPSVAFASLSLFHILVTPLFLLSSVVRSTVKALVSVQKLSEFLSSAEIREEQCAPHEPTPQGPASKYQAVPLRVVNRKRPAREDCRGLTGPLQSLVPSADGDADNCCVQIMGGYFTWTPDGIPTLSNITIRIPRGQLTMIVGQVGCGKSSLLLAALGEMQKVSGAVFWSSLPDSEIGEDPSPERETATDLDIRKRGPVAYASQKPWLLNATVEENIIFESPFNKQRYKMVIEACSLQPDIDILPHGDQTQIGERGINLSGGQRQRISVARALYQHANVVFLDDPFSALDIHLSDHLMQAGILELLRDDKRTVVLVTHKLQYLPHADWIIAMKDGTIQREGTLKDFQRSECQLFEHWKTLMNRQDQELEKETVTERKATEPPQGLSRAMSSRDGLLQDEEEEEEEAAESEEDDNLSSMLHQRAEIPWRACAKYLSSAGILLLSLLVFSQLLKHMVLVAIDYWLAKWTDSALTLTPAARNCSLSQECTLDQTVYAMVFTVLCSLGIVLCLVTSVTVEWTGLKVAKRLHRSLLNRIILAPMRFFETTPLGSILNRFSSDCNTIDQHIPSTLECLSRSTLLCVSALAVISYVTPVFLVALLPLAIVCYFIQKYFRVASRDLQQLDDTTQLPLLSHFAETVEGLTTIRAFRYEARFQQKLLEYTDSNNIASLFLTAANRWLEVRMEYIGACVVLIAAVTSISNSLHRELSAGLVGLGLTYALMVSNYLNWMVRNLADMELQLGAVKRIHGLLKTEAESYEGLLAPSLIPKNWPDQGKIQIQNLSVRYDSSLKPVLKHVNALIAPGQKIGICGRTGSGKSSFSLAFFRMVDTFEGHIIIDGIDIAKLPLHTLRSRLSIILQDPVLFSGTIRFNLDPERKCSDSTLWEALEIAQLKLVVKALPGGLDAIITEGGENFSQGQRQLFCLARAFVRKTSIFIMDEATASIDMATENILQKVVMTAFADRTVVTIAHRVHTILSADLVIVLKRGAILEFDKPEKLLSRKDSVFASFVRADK
sulfonylurea receptor, sequence (Q14654 whole entry partner): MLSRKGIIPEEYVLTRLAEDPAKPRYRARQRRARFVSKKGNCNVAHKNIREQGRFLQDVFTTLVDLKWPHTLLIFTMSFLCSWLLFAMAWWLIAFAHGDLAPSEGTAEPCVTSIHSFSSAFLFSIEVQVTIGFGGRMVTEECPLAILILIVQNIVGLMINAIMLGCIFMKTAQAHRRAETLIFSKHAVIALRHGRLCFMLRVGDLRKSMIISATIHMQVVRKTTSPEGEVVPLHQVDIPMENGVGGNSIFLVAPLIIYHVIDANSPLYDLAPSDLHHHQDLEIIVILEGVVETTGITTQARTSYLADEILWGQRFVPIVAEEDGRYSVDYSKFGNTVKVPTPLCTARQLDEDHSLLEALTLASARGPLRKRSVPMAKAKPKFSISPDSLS

Compound: CC(=O)c1ccc(S(=O)(=O)NC(=O)NC2CCCCC2)cc1 [Acetohexamide]
Duration of Action [1]: 12 to 18 h

Compound: CCCNC(=O)NS(=O)(=O)c1ccc(Cl)cc1 [Chlorpropamide]
Duration of Action [1]: 60 h

Compound: [Cr] [Cr, Chromium]
reduction of metformin requirements [2]: more than one-half

Compound: CCC1=C(C)CN(C(=O)NCCc2ccc(S(=O)(=O)NC(=O)N[C@H]3CC[C@H](C)CC3)cc2)C1=O [Glimepiride]
Duration of Action [1]: 16 to 24 h

Compound: Cc1cnc(C(=O)NCCc2ccc(S(=O)(=O)NC(=O)NC3CCCCC3)cc2)cn1 [Glipizide (XL), Glipizide]
Duration of Action [1]: 24 h

concentration range that saturates sulfonylurea receptors (sulfonylurea receptor): low nM
Compound: Cc1cnc(C(=O)NCCc2ccc(S(=O)(=O)NC(=O)NC3CCCCC3)cc2)cn1 [Glipizide]
Duration of Action [1]: 12 to 24 h

Compound: COc1ccc(Cl)cc1C(=O)NCCc1ccc(S(=O)(=O)NC(=O)NC2CCCCC2)cc1 [Glyburide]
glycolytic flux and lactate production (perfused rat hearts): dramatic increase

lactic acidosis, reported frequency [3]: 3 cases per 100,000 patient-years
Compound: CN(C)C(=N)N=C(N)N [Metformin, metformin]
lactic acidosis, reported incidence [3]: 0.03 /1,000 patient-years exposure
decrease of low-density lipoprotein (LDL) cholesterol levels (monotherapy): 10% to 15%
decrease of plasma triglyceride levels (monotherapy): 10% to 15%
weight loss (patients with type 2 diabetes, first 6 months of treatment): 2 to 3 kg
weight change [4]: significant weight loss
gastrointestinal side effects (diarrhea, nausea, abdominal pain, metallic taste) [5]: 20% to 30%

Compound: CCCCNC(=O)NS(=O)(=O)c1ccc(C)cc1 [Tolbutamide]
Duration of Action [1]: 6 to 12 h

Compound: O=C1O[C@H]([C@@H](O)CO)C(O)=C1O [ascorbate, ascorbic acid]
decrease of cellular insulin glycation [6]: 66–80%

amount absorbed from the intestine ([7]; oral): 15 to 87 % of ingested carnitine
tissue concentrations relative to plasma ([7]; skeletal and cardiac muscle, active transport): 20- to 50 fold
Compound: C[N+](C)(C)CC(O)CC(=O)[O-] (stereo not drawn) [carnitine, beta-hydroxy-gamma-N-trimethylaminobutyric acid]

Compound: COC1=C(OC)C(=O)C(C/C=C(\C)CC/C=C(\C)CC/C=C(\C)CC/C=C(\C)CC/C=C(\C)CC/C=C(\C)CC/C=C(\C)CC/C=C(\C)CC/C=C(\C)CCC=C(C)C)=C(C)C1=O [coenzyme Q10, Ubiquinone]
HDL-cholesterol [8]: increased
systolic and diastolic blood pressure, fasting and 2-h plasma insulin, glucose, triglycerides, lipid peroxides, malondialdehyde and diene conjugates [8]: all reduced

Compound: NC(=O)c1cccnc1 [nicotinamide]
concentration of maximum effect on recovery of glucose-induced insulin secretion (pancreatic islets): 25 mmol/L

Compound: O=S(=O)([O-])[O-].[O]=[V+2] [vanadyl sulfate]
duration of effects after discontinuation ([9]; 100 mg/day for 3 weeks): up to 2 weeks
hepatic and peripheral insulin sensitivity ([9]; 100 mg/day, after 3 weeks): appear to improve

insulin efficiency [10]: further worsen insulin efficiency
Compound: vitamin E
